Laboratory results from ChEMBL document CHEMBL4699584, “Bioassay-Directed Isolation of Antibacterial Metabolites from an Arthropod-Derived Penicillium chrysogenum” (2020).

Experiments:
Assay type in all cases: functional
Staphylococcus aureus = experiment: Antibacterial activity against methicillin-resistant Staphylococcus aureus assessed as reduction in microbial growth by broth microdilution method
Escherichia coli = experiment: Antibacterial activity against ESBL producing Escherichia coli assessed as reduction in microbial growth by broth microdilution method
Enterococcus faecalis = experiment: Antibacterial activity against Enterococcus faecalis assessed as reduction in microbial growth by broth microdilution method

Row | Compound | MIC (Staphylococcus aureus) | MIC (Escherichia coli) | MIC (Enterococcus faecalis)
1 | C[C@H]1[C@@H]2O[C@@H]2C(=O)[C@]2(C)CC[C@H]3[C@H]4[C@](C)(CC[C@]4(C)C(=O)O)C[C@]132 | 4 µg/mL | 32 µg/mL | 32 µg/mL
2 | C[C@H]1C=CC(=O)[C@]2(C)CC[C@H]3[C@@H]4C(CO)(CO)CC[C@]4(C)C[C@]132 | 2 µg/mL | 32 µg/mL | 32 µg/mL
